Results taken from patent US20250338846A1, “COMPOSITIONS HAVING PESTICIDAL UTILITY AND PROCESSES RELATED THERETO” (CORTEVA AGRISCIENCE, LLC, priority 2022, published 2025).
Values joined by “and” are separate entries in the source; they are usually repeats but may differ in a detail not shown here. Identical values can stand only once.

Legend:
Type in all cases: in vivo
[1] = tested on: Cotton Aphid (Aphis gossypii, APHIGO); test: Bioassay 7: Cotton Aphid, foliar spray on infested cotton seedlings, live aphids counted three days after treatment
[2] = tested on: Diamondback Moth (Plutella xylostella, PLUTMA); test: Bioassay 9: Diamondback Moth, leaves of track-sprayed cabbage plants, mortality and feeding damage scored
[3] = tested on: Diamondback Moth (Plutella xylostella, PLUTMA); test: as above; conditions: F1 alone 40 (10^-5) Wt %

CCN(C(=O)CCS(C)(=O)=O)c1sc(-c2cccnc2)nc1Cl [Formula F1, N-(4-chloro-2-(pyridin-3-yl)thiazol-5-yl)-N-ethyl-3-(methylsulfonyl)propanamide]
Average % Control F1 ([1]; F1 alone 0.1 (10^-5) Wt %): 24.39% | Average % Control F1 ([1]; F1 alone 0.2 (10^-5) Wt %): 5.79% | Average % Control F1 ([1]; F1 alone 0.78 (10^-5) Wt %): 25.58% | Average % Control F1 ([1]; F1 alone 0.8 (10^-5) Wt %): 24.39% and 47.56% | Average % Control F1 ([1]; F1 alone 2.5 (10^-5) Wt %): 29.04% | Average % Control F1 ([2]; F1 alone 10 (10^-5) Wt %): 0.00% | Average % Control F1 ([2]; Feeding damage control, F1 alone 20 (10^-5) Wt %): 17.64% | Average % Control F1 ([3]; Acute mortality): 6.82% | Average % Control F1 ([3]; Feeding damage control): 8.53%
